Paper PMC7765500, “Siderophore Scaffold as Carrier for Antifungal Peptides in Therapy of Aspergillus fumigatus Infections” (Journal of Fungi, 2020)
Values after ≈ are worked out from the molar mass of the structure shown. Like-named read-outs stand apart in the source and are kept apart here. Square brackets hold non-standard residues; d marks the D form. Ends that are not written are not given here. Peptide text beside a SMILES is read from it.

Assays:
[1] = tested on: A. fumigatus mutant strain ΔsidA/ΔftrA; assay: Growth promotion assay; format: cell-based, Aspergillus fumigatus; conditions: 72 h, 37 °C; for Concentration of growth induction / utilization / Concentration of sporulation: iron-depleted AMM, 0.1–50 µM tested; for Growth promotion (in words): visually assessed
From the text: To assess the capability of A. fumigatus to utilize the modified siderophores, a mutant strain (ΔsidA/ΔftrA) that lacks the genes sidA and ftrA was used. These mutations impair both siderophore-mediated iron acquisition and reductive iron assimilation, in other words, high-affinity iron acquisition. If the activity of externally supplied siderophore was still intact, similar growth to [Fe]TAFC should be observed, however, in the case of growth reduction, it cannot be distinguished from antifungal activity. Spores (10^4) were point inoculated on solid 0.5 mL of AMM [26] in 24-well plates containing increasing concentrations of iron labelled siderophore ranging from 0.1–50 μM. Plates were incubated for 72 h at 37 °C in a humidity chamber and visually assessed.

[2] = tested on: A. fumigatus (ATCC 46645); format: cell-based, Aspergillus fumigatus; conditions: for Antifungal activity lacking up to: medium and time not given
Protocol: (§1) Susceptibility tests were performed according to CLSI guidelines with slight modifications. In brief, 96-well plates (Greiner Bio-One GmbH) were prepared with 100 μL of 2 × AMM (Aspergillus minimal medium) or 0.2 × Potato Dextrose Broth (PDB) containing 3 × 10^4 spores of A. fumigatus (ATCC 46645) per well. An amount of 100μL antifungal, dissolved in water, was added to get a final concentration of 1 × AMM/0.1 × PDB medium and antifungal concentration ranging from 0.031–16 μg/mL.

[3] = tested on: A. fumigatus (ATCC 46645); format: cell-based, Aspergillus fumigatus
Protocol: as §1

[4] = format: physicochemical; conditions: pH 7.4
Protocol: Aliquots of 50 µL of ^68Ga-labelled conjugate (~5 µM) were added to 450 µL of phosphate-buffered saline pH 7.4 (PBS) and 500 µL of Octanol into a 1.5 mL Eppendorf tube. The mixture was vigorously shaken for 20 min at 1400 rpm in a standard vortex (MS 3, IKA, Staufen, Germany) and hereafter, 200 µL of each phase removed and measured in a gamma counter (2480 automatic gamma counter Wizard2 3’’, Perkin Elmer, Waltham, MA, USA) LogD was calculated as the ratio of octanol/water phase using Excel. (n = 3, six technical replicates)

A. fumigatus = assay: Uptake assay of 68Ga-labelled conjugates in A. fumigatus; format: cell-based, Aspergillus fumigatus; conditions: iron-depleted AMM, 45 min, 37 °C
Protocol: Assays were performed as previously described. Briefly, uptake and competition assays were performed with A. fumigatus in iron-depleted and iron-replete Aspergillus minimal media (AMM), using a 96-well MultiScreen Filter Plates HTS (1 μm glass fiber filter, Merck Millipore, Darmstadt, Germany). Compounds were incubated for 45 min at 37 °C and filters measured in a gamma counter. Competition assays were performed in the same way except for pre-incubation with the iron-containing antifungal conjugates for 15 min, resulting in a competition at the MirB transporter to show specific binding to MirB.

[5] = cited from earlier work

## triacetylfusarinine C [[Fe]TAFC, reference compound]
[1]
  Concentration of growth induction / utilization: 0.1 µM
  Concentration of sporulation: 10 µM

## CC(=O)NC1CCCN(O)C(=O)/C=C(/C)CCOC(=O)C(NC(=O)CCC(=O)N[C@@H](CCCNC(=N)N)C(=O)N[C@@H](CCCCN)C(=O)N[C@@H](CCCCN)C(=O)N[C@@H](Cc2c[nH]c3ccccc23)C(=O)N[C@@H](Cc2ccccc2)C(=O)N[C@@H](Cc2c[nH]c3ccccc23)C(N)=O)CCCN(O)C(=O)/C=C(/C)CCOC(=O)C(NC(C)=O)CCCN(O)C(=O)/C=C(/C)CCOC1=O (stereo partly drawn) [[Fe]DAFC-L-PAF26]
[1]
  Growth promotion (in words): low hyphal growth without sporulation
[2]; AMM, 37 °C, 24 h
  MIC 24 h: >16 µg/mL
[2]; AMM, 37 °C
  MIC 48 h: >16 µg/mL
[2]; ATCC 46645, 24 h
  MIC 24 h: >8.4 µM

## CC(=O)NC1CCCN(O)C(=O)/C=C(/C)CCOC(=O)C(NC(=O)CCC(=O)N[C@@H](CC(N)=O)C(=O)N[C@@H](CC(C)C)C(=O)N[C@H](Cc2ccccc2)C(=O)O)CCCN(O)C(=O)/C=C(/C)CCOC(=O)C(NC(C)=O)CCCN(O)C(=O)/C=C(/C)CCOC1=O (some centres unmarked) [[Fe]DAFC-succ-NLF]
[1]
  Concentration of growth induction / utilization: 10 to 50 µM
  Growth promotion (in words): very low growth promotion
[2]; AMM, 37 °C, 24 h
  MIC 24 h: >16 µg/mL
[2]; AMM, 37 °C
  MIC 48 h: >16 µg/mL
[2]; ATCC 46645, 24 h
  MIC 24 h: >12.0 µM
[2]
  Antifungal activity lacking up to: > 16 µg/mL

## CC(=O)NC1CCCN(O)C(=O)/C=C(/C)CCOC(=O)C(NC(=O)CCC(=O)N[C@H](CCCNC(=N)N)C(=O)N[C@H](CCCCN)C(=O)N[C@H](CCCCN)C(=O)N[C@H](Cc2c[nH]c3ccccc23)C(=O)N[C@H](Cc2ccccc2)C(=O)N[C@H](Cc2c[nH]c3ccccc23)C(N)=O)CCCN(O)C(=O)/C=C(/C)CCOC(=O)C(NC(C)=O)CCCN(O)C(=O)/C=C(/C)CCOC1=O (stereo partly drawn) [[Fe]DAFC-D-PAF26]
[1]
  Growth promotion (in words): low hyphal growth without sporulation
[2]; AMM, 37 °C, 24 h
  MIC 24 h: >16 µg/mL
[2]; AMM, 37 °C
  MIC 48 h: >16 µg/mL
[2]; ATCC 46645, 24 h
  MIC 24 h: >8.4 µM
[3]; 0.1 × PDB, 37 °C, 24 h
  MIC 24 h: >16 µg/mL
[3]; 0.1 × PDB, 37 °C
  MIC 48 h: >16 µg/mL
[3]; ATCC 46645, 24 h
  MIC 24 h: >8.4 µM

## CC(=O)N[C@@H]1CCCN(O)C(=O)/C=C(/C)CCOC(=O)[C@H](NC(=O)CCC(=O)N[C@@H](CCCNC(=N)N)C(=O)N[C@@H](CCCCN)C(=O)N[C@@H](CCCCN)C(=O)N[C@@H](Cc2c[nH]c3ccccc23)C(=O)N[C@@H](Cc2ccccc2)C(=O)N[C@@H](Cc2c[nH]c3ccccc23)C(N)=O)CCCN(O)C(=O)/C=C(/C)CCOC(=O)[C@H](NC(C)=O)CCCN(O)C(=O)/C=C(/C)CCOC1=O [[^68Ga]Ga-DAFC-L-PAF26, metal not drawn]
[4]
  logD: -3.13 ± 0.02
A. fumigatus
  Uptake into A. fumigatus hyphae normalized to uptake of [68Ga]Ga-TAFC: 90%

## H-Asn-Leu-[dF]-OH [NLF]
[2]; AMM, 0.031–16 µg/mL tested
  Antifungal activity (in words): lacked antifungal potential

## CC(=O)N[C@H](CCCNC(=N)N)C(=O)N[C@H](CCCCN)C(=O)N[C@H](CCCCN)C(=O)N[C@H](Cc1c[nH]c2ccccc12)C(=O)N[C@H](Cc1ccccc1)C(=O)N[C@H](Cc1c[nH]c2ccccc12)C(N)=O [PAF26, Ac-dArg-dLys-dLys-dTrp-dPhe-dTrp-NH2, reference compound] (Ac-[dR][dK][dK][dW][dF][dW]-NH2)
[3]; 0.1 × PDB, incubation time not given
  MIC / growth inhibition: 8 µg/mL (≈ 8.07 µM)

## CC(=O)NC1CCCN(O)C(=O)/C=C(/C)CCOC(=O)C(NC(=O)[C@@H](Cc2ccccc2)NC(=O)[C@H](CC(C)C)NC(=O)[C@H](CC(N)=O)NC(C)=O)CCCN(O)C(=O)/C=C(/C)CCOC(=O)C(NC(C)=O)CCCN(O)C(=O)/C=C(/C)CCOC1=O (some centres unmarked) [[Fe]DAFC-NLF-Ac]
[1]
  Concentration of sporulation: 50 µM
[2]; AMM, 37 °C, 24 h
  MIC 24 h: >16 µg/mL
[2]; AMM, 37 °C
  MIC 48 h: >16 µg/mL
[2]; ATCC 46645, 24 h
  MIC 24 h: >12.5 µM
[2]
  Antifungal activity lacking up to: > 16 µg/mL

## triacetylfusarinine C [[^68Ga]Ga-TAFC]
[5]; BALB/c mice, 30 min, blood
  Biodistribution Blood 30 min: 1.60 ± 0.37 %ID/g
[5]; BALB/c mice, 30 min, femur
  Biodistribution Femur 30 min: 0.51 ± 0.79 %ID/g
[5]; BALB/c mice, 30 min, heart
  Biodistribution Heart 30 min: 0.67 ± 0.16 %ID/g
[5]; BALB/c mice, 30 min, intestine
  Biodistribution Intestine 30 min: 1.71 ± 10.04 %ID/g
[5]; BALB/c mice, 30 min, kidneys
  Biodistribution Kidneys 30 min: 5.51 ± 1.22 %ID/g
[5]; BALB/c mice, 30 min, liver
  Biodistribution Liver 30 min: 0.70 ± 0.04 %ID/g
[5]; BALB/c mice, 30 min, lung
  Biodistribution Lung 30 min: 1.54 ± 0.27 %ID/g
[5]; BALB/c mice, 30 min, muscle
  Biodistribution Muscle 30 min: 0.52 ± 0.25 %ID/g
[5]; BALB/c mice, 30 min, pancreas
  Biodistribution Pancreas 30 min: 0.42 ± 0.16 %ID/g
[5]; BALB/c mice, 30 min, spleen
  Biodistribution Spleen 30 min: 0.38 ± 0.11 %ID/g
[5]; BALB/c mice, 30 min, stomach
  Biodistribution Stomach 30 min: 0.77 ± 0.22 %ID/g
[5]; BALB/c mice, 90 min, blood
  Biodistribution Blood 90 min: 0.06 ± 0.04 %ID/g
[5]; BALB/c mice, 90 min, femur
  Biodistribution Femur 90 min: 0.15 ± 0.20 %ID/g
[5]; BALB/c mice, 90 min, heart
  Biodistribution Heart 90 min: 0.03 ± 0.01 %ID/g
[5]; BALB/c mice, 90 min, intestine
  Biodistribution Intestine 90 min: 1.03 ± 0.26 %ID/g
[5]; BALB/c mice, 90 min, kidneys
  Biodistribution Kidneys 90 min: 1.27 ± 0.39 %ID/g
[5]; BALB/c mice, 90 min, liver
  Biodistribution Liver 90 min: 0.15 ± 0.09 %ID/g
[5]; BALB/c mice, 90 min, lung
  Biodistribution Lung 90 min: 0.10 ± 0.03 %ID/g
[5]; BALB/c mice, 90 min, muscle
  Biodistribution Muscle 90 min: 0.03 ± 0.01 %ID/g
[5]; BALB/c mice, 90 min, pancreas
  Biodistribution Pancreas 90 min: 0.04 ± 0.01 %ID/g
[5]; BALB/c mice, 90 min, spleen
  Biodistribution Spleen 90 min: 0.05 ± 0.02 %ID/g
[5]; BALB/c mice, 90 min, stomach
  Biodistribution Stomach 90 min: 0.06 ± 0.02 %ID/g
[5]
  Metabolites on excretion through the urinary tract (in words): no metabolites detected

## RKKWFW [HOOC-L-PAF26-NH2]
[2]; AMM, 37 °C, 24 h
  MIC 24 h: >16 µg/mL
[2]; AMM, 37 °C
  MIC 48 h: >16 µg/mL
[2]; ATCC 46645, 24 h
  MIC 24 h: >16.8 µM

## CC(=O)N[C@@H](CC(N)=O)C(=O)N[C@@H](CC(C)C)C(=O)N[C@H](Cc1ccccc1)C(=O)O [HOOC-NLF-Ac] (Ac-Asn-Leu-[dF]-OH)
[2]; AMM, 37 °C, 24 h
  MIC 24 h: >16 µg/mL
[2]; AMM, 37 °C
  MIC 48 h: >16 µg/mL
[2]; ATCC 46645, 24 h
  MIC 24 h: >36.8 µM

## CC(=O)N[C@H](CCCNC(=N)N)C(=O)N[C@H](CCCCN)C(=O)N[C@H](CCCCN)C(=O)N[C@H](Cc1c[nH]c2ccccc12)C(=O)N[C@H](Cc1ccccc1)C(=O)N[C@H](Cc1c[nH]c2ccccc12)C(N)=O [H2N-D-PAF26-Ac] (Ac-[dR][dK][dK][dW][dF][dW]-NH2)
[2]; AMM, 37 °C, 24 h
  MIC 24 h: >16 µg/mL
[2]; AMM, 37 °C
  MIC 48 h: >16 µg/mL
[2]; ATCC 46645, 24 h
  MIC 24 h: >16.1 µM
[3]; 0.1 × PDB, 37 °C, 24 h
  MIC 24 h: 16 µg/mL
[3]; 0.1 × PDB, 37 °C
  MIC 48 h: >16 µg/mL
